Experimental data: patent US11925690B2, “Bifunctional molecules for targeting Rpn11” (AMPHISTA THERAPEUTICS LTD, priority 2018, dated 2024)

How the values were obtained:
Format in all cases: cell-based
Brd4 (S) = biological target: T1, Brd4 (S) (Homo sapiens, UniProt O60885); assay: Time-dependent BET degradation, immunoblot; design: Dmax: dose or concentration left out as unconfirmed; conditions: HeLa; for Abs. T1/2 / T1/2: 1 μM; for Abs. T1/2: time to deplete 50% of the protein relative to DMSO; for T1/2: time to reach 50% of the Dmax
T1 construct: endogenous in cells; host or cells: HEK293 (CRL-1573), HeLa (CCL-2)
Description: (§1) Immunoblotting. Proteins were separated by SDS-PAGE on NuPage 4-12% Bis-Tris gels, followed by transfer to Amersham Protran 0.45 NC nitrocellulose membrane (GE Healthcare) using wet transfer. Membranes were blocked using 5% w/v milk in Tris-buffered saline (TBS) with 0.1% Tween-20. Blots were probed (overnight at 4 °C) using anti-Brd2 (Abcam ab139690, 1:2,000 dilution), anti-Brd3 (Abcam ab50818, 1:500 dilution), and anti-Brd4 (Abcam ab128874, 1:1,000 dilution) primary antibodies, as appropriate. The next day, blots were washed with TBST and incubated (1 h at Room temperature) with anti-Tubulin hFAB-rhodamine (BioRad, 12004166) primary antibody, and either anti-rabbit IRDye 800CW (Licor 1:1,000 dilution) or anti-mouse IRDye 800CW (Licor 1:1,000 dilution) secondary antibody. Blots were developed using a Bio-Rad ChemiDoc MP Imaging System, and band quantification was performed using Image Studio software (LiCor). Band intensities were normalized to the tubulin loading control and reported as % of the average 0.1% DMSO vehicle intensity. Degradation data was plotted and analysed using Prism (Graphpad, version 8).
(§2) HEK293 (0.5×10^6) cells were seeded in standard 6-well plates (2 mL medium) overnight before treatment with compounds at 1 μM concentration, with a final DMSO concentration of 0.1% v/v. After incubation for the desired time (0-24 hrs), cells were washed with DPBS (Gibco) and lysed using 85 μL RIPA buffer (Sigma-Aldrich) supplemented with complete Mini EDTA-free protease inhibitor cocktail (Roche) and benzonase. Lysates were clarified by centrifugation (20000 g, 10 min, 4° C.) and the total protein content of the supernatant was quantified using a Bradford colorimetric assay. Samples were prepared using equal amounts of total protein and LDS sample buffer (Invitrogen). Band intensities were normalized to the tubulin loading control and reported as % of the average 0.1% DMSO vehicle intensity. Degradation data was plotted and analysed using Prism (Graphpad, version 8).
(§3) MZ1 and 11JQ17 were used at 1 μM (4 h) for positive and negative controls, respectively. […] T1/2 (h) is the time required to deplete 50% of the protein relative to DMSO.

Brd4 (L) = biological target: T2, Brd4 (L) (Homo sapiens, UniProt O60885); assay: Time-dependent BET degradation, immunoblot; design: Dmax: dose or concentration left out as unconfirmed; conditions: HeLa; for Abs. T1/2 / T1/2: 1 μM; for Abs. T1/2: time to deplete 50% of the protein relative to DMSO; for T1/2: time to reach 50% of the Dmax
T2 construct: endogenous in cells; host or cells: HEK293 (CRL-1573), HeLa (CCL-2)
Description: as §1, §2, §3

Brd3 = Brd3 (Homo sapiens, UniProt Q15059); assay: Time-dependent BET degradation, immunoblot; conditions: HEK293, Brd3, 1 μM; for Dmax at 1 µM: 0-24 hrs; for Abs. T1/2: time to deplete 50% of the protein relative to DMSO; for T1/2: time to reach 50% of the Dmax
Sequence of Brd3 (Q15059 whole entry): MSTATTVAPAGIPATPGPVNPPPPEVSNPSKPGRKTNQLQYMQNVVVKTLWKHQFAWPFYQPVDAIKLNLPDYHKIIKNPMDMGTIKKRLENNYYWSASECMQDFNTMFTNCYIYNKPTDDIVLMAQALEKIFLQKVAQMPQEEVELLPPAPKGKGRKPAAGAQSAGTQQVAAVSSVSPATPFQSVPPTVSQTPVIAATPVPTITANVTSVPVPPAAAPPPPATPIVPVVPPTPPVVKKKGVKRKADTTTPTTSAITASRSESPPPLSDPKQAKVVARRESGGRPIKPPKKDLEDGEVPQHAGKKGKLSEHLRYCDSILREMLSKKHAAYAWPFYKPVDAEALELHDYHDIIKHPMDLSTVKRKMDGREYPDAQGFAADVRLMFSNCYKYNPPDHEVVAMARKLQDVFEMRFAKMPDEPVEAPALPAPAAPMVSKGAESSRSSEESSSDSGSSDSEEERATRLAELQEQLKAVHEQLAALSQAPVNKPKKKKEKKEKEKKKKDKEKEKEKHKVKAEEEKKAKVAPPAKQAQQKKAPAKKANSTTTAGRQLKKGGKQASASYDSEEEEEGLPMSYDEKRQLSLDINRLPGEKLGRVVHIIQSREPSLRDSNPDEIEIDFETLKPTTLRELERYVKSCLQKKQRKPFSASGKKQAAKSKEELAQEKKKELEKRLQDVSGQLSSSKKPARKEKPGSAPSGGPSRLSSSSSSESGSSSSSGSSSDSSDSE
Description: as §1, §2
MZ1 and 11JQ17 were used at 1 μM (4 h) for positive and negative controls, respectively. […]

HEK293 cells = assay: Unbiased whole proteome analysis by TMT-labelling MS; conditions: HEK293, 1 μM, 4 h, n=3
Description: HEK293 (2.2×10 6) cells were seeded in 10 cm plates (10 mL medium) overnight before treatment with 1 μM compound for a final DMSO concentration of 0.1% v/v. After 4 h incubation time, cells were washed with 2× with DPBS (Gibco) and lysed using 500 μL lysis buffer (100 mM Tris, 4% (w/v) SDS, pH 8.0) supplemented with cOmplete Mini EDTA-free protease inhibitor cocktail (Roche) and benzonase. Lysates were briefly sonicated (2×10 s), clarified by centrifugation (20000 g, 10 min, 4° C.) and the total protein content of the supernatant was quantified using a BCA assay (Thermo Fisher Scientific).
Sample processing, digestion, desalting, labelling, and fractionation were performed at Fingerprint Proteomics (University of Dundee) as described previously [Gadd et al. 10.1038/nchembio.2329]. FIG. 7 depicts fold change of abundance of 7882 proteins comparing 11JQ15 to DMSO treatment (left) and comparing 1 μM 11JQ17 to DMSO treatment (right), as well as their respective p-values (t-test; n=3).

MV4-11 cells = assay: CellTiter-Glo anti-proliferative assay; conditions: MV4-11, 72 h, 5 μM and below compound
Description: The anti-proliferative effects of representative compounds and other compounds was measured using the CellTiter-Glo assay (Promega). MV4-11 cells were incubated in a sterile, white, clear-bottomed 384-well cell-culture microplate (Greiner Bio-one), at 2× concentration in RPMI media and a volume of 25 μl. The next day, test compounds were serially diluted in RPMI media to 2× concentration, then added to cells to make a final volume of 50 μl. After a 72 h incubation 25 μl of CellTiter-Glo reagent was added to each well. Following 15 minute incubation the luminescence signal was read on a Pherastar FS. The final concentration of assay components are as follows: 3×10^5 cells/ml, 0.05% DMSO, 5 μM and below compound. Data (FIG. 8) was processed and dose-response curves generated using Prism 8 (Graphpad).

[1] = system: Brd4, c-MYC, cleaved PARP (C-PARP); assay: Immunoblot of Brd4, c-MYC and cleaved PARP in MV4-11 cells
Description: MV4-11 (0.7×10^6 cells/mL) were seeded in 10 cm plates (10 mL DMEM supplemented with 10% FBS and L-glutamine) overnight before treatment with compounds at the desired concentration and with a final DMSO concentration of 0.1% v/v. After 6 h incubation time, cells were washed with 2× with DPBS (Gibco) and lysed using 85 μL RIPA buffer (Sigma-Aldrich) supplemented with cOmplete Mini EDTA-free protease inhibitor cocktail (Roche) and benzonase. Lysates were clarified by centrifugation (20000 g, 10 min, 4° C.) and the total protein content of the supernatant was quantified using a Bradford colorimetric assay. Samples were prepared using equal amounts of total protein and LDS sample buffer (Invitrogen). For immunoblot analysis, the following antibodies were used: anti-Brd4 (ab128874, 1:1,000 dilution), anti-cmyc (ab32072, 1:1000 dilution), anti-CPARP (CST-9541T, 1:1,000 dilution), and anti-Tubulin hFAB-rhodamine (BioRad, 12004166, 1:10000 dilution).

[2] = MV4-11, increasing concentrations, 6 h

Dmax (Brd4 (S)) [%]	Abs. T1/2 (Brd4 (S)) [h]	T1/2 (Brd4 (S)) [h]	Dmax (Brd4 (L)) [%]	Abs. T1/2 (Brd4 (L)) [h]	T1/2 (Brd4 (L)) [h]	Dmax at 1 µM (Brd3) [%]	Abs. T1/2 (Brd3) [h]	T1/2 (Brd3) [h]	Compound	fold change of abundance of 7882 proteins vs DMSO (FIG. 7) (HEK293 cells)	cytotoxicity profile / anti-proliferative effect (FIG. 8) (MV4-11 cells)	increase in C-PARP compared with JQ1 and 11JQ18 ([1]; MV4-11, 6 h)	Brd4 and c-MYC levels (FIG. 9) [1, 2]	cleaved PARP (FIG. 9) [1, 2]
90	3.3	2.8	90	4.3	3.5	70	2.6	1.5	Cc1sc2c(c1C)C(c1ccc(Cl)cc1)=N[C@@H](CC(=O)NCCOCCNC(=O)c1cc(SC(=O)c3ccccc3)c3ncc(C(=O)NCCc4nccs4)cc3c1)c1nnc(C)n1-2 [Example 11JQ15]	selective degradation of Brd2, Brd3 and Brd4	–	–	–	–
100	3.1	3	100	2.4	2.3	95	3.4	2.9	Cc1sc2c(c1C)C(c1ccc(Cl)cc1)=N[C@@H](CC(=O)NCCCCNC(=O)c1cc(S)c3ncc(C(=O)NCCc4nccs4)cc3c1)c1nnc(C)n1-2 [Example 11JQ7]	–	distinct from JQ1 and inactive 11JQ18	–	–	–
–	–	–	–	–	–	95	1.9	1.6	Cc1sc2c(c1C)C(c1ccc(Cl)cc1)=N[C@@H](CC(=O)NCCCCNC(=O)c1cc(SC(=O)c3ccccc3)c3ncc(C(=O)NCCc4nccs4)cc3c1)c1nnc(C)n1-2 [Example 11JQ16]	–	distinct from JQ1 and inactive 11JQ18	significantly greater than inhibitor (JQ1) alone and the negative control (11JQ18)	depletion of Brd4 and c-MYC levels	corresponding increase in cleaved PARP
